Values quoted from earlier work in US20170189347A1, “TRANSDERMAL DELIVERY SYSTEM” (priority 2014, published 2017).

What was measured:
[1] = not given; remark: listed apart in the source
MAO-B = MAO-B (Homo sapiens, UniProt P27338); details: in humans
MAO-A = MAO-A (Homo sapiens, UniProt P21397); details: in humans
Sequence of MAO-A (P21397 whole entry): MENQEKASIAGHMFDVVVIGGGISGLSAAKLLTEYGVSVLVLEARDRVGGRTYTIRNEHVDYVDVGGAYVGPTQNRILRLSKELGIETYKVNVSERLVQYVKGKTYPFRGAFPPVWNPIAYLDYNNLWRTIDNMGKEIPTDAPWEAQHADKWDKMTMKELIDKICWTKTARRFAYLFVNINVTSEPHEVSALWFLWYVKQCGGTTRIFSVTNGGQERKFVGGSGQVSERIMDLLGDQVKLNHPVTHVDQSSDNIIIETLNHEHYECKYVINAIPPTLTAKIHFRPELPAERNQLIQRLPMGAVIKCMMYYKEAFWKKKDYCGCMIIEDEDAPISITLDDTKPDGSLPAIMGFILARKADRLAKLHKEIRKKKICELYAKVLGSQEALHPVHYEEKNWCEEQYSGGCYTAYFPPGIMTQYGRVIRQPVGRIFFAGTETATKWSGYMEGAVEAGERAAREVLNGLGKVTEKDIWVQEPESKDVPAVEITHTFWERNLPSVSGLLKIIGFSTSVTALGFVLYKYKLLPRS

Sequence of MAO-B (P27338 whole entry): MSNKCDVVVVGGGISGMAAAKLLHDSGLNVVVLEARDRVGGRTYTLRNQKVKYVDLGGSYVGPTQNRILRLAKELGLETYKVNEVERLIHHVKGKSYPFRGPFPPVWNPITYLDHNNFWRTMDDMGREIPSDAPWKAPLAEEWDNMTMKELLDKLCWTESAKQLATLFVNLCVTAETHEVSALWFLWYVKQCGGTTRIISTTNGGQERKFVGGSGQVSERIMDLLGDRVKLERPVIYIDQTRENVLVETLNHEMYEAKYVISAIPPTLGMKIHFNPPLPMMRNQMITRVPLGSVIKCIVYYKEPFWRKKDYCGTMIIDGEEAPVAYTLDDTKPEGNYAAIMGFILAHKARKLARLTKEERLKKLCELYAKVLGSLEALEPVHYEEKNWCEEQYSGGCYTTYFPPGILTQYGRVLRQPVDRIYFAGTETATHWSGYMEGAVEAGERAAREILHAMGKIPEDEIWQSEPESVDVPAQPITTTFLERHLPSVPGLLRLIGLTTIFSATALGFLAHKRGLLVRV

C#CCN(C)[C@H](C)Cc1ccccc1 [selegiline]
solubility in water: 0.025 grams of drug per liter of water

C#CCN[C@@H]1CCc2ccccc21 [rasagiline, (1R)-N-(prop-2-yn-1-yl)-2,3-dihydro-1H-inden-1-amine]
solubility in water: 0.025 grams of drug per liter of water | solubility in non-crosslinked acrylic copolymer PSA DT 87-4098 ([1]; DT 87-4098): 54 wt % | solubility in non-crosslinked acrylic copolymer PSA DT 87-9088 ([1]; DT 87-9088): 111 wt % | solubility in non-crosslinked acrylic copolymer PSA DT 87-9301 ([1]; DT 87-9301): 78 wt % | solubility in polyisobutylene (PIB) PSA ([1]; PIB): about 8 wt % | solubility in silicone PSA ([1]; silicone PSA): ~6 wt % | inhibition of MAO-B (MAO-B): selectively inhibit MAO-B | inhibition of MAO-A (MAO-A): not to inhibit MAO-A
